The values below come from US9204653B2, “5-fluoro pyrimidine derivatives” (DOW AGROSCIENCES LLC, priority 2008, dated 2015).

Like-named read-outs stand apart in the source and are kept apart here.

The test system of the experiment is Mycosphaerella graminicola; Anamorph: Septoria tritici; Bayer Code SEPTTR. Description: Leaf blotch of wheat, foliar fungicide treatment, one day protectant (1DP) or three day curative (3DC). Particulars: Zymoseptoria tritici; for pest or weed control at 200 ppm: % disease control rating. In kind it is in vivo, Septoria tritici on wheat plants (variety Yuma).
Where [1] appears, read: 24 h, one day protectant, 25 ppm, rating of percent disease control, read-out: SETTTR 1DP 25 ppm.
The mark [2] stands for this setting: 24 h, one day protectant, rating of percent disease control, read-out: SEPTTR 1DP 100 ppm.
Setting [3] is: 72 h, three day curative, 25 ppm, rating of percent disease control, read-out: SEPTTR 3DC 25 ppm.
Setting [4] is: 72 h, three day curative, rating of percent disease control, read-out: SEPTTR 3DC 100 ppm.
Setting [5] is: 24 h, one day protectant (1DP), 25 ppm (first 1DP column), percent control rating, read-out: SETTTR 1DP 25 ppm.
[6] abbreviates: 24 h, one day protectant (1DP), 25 ppm as printed (second 1DP column), percent control rating, read-out: SETTTR 1DP 25 ppm.
[7] abbreviates: 72 h, three day curative (3DC), 25 ppm, percent control rating, read-out: SEPTTR 3DC 25 ppm.
[8] abbreviates: 72 h, three day curative (3DC), percent control rating, read-out: SEPTTR 3DC 100 ppm.
Setting [9] is: 24 h, one day protectant (1DP), 25 ppm, percent disease control rating, read-out: SETTTR 1DP 25 ppm.
Setting [10] is: 24 h, one day protectant (1DP), percent disease control rating, read-out: SEPTTR 1DP 100 ppm.
The mark [11] stands for this setting: 72 h, three day curative (3DC), 25 ppm, percent disease control rating, read-out: SEPTTR 3DC 25 ppm.
[12] abbreviates: 72 h, three day curative (3DC), percent disease control rating, read-out: SEPTTR 3DC 100 ppm.
Where [13] appears, read: 24 h, one day protectant (1DP), 25 ppm, rating of percent disease control, read-out: SETTTR 1DP 25 ppm.
Where [14] appears, read: 24 h, one day protectant (1DP), rating of percent disease control, read-out: SEPTTR 1DP 100 ppm.
Where [15] appears, read: 72 h, three day curative (3DC), 25 ppm, rating of percent disease control, read-out: SEPTTR 3DC 25 ppm.
[16] abbreviates: 72 h, three day curative (3DC), rating of percent disease control, read-out: SEPTTR 3DC 100 ppm.

As for `Nc1nc(OCc2ccc(Cl)c(Cl)c2)ncc1F` [Compound 574], the pest or weed control at 25 ppm under setting [1] is 76 to 100% and the pest or weed control at 25 ppm under setting [3] was 76 to 100%. In addition, the pest or weed control at 100 ppm was 76 to 100% under setting [2] and 76 to 100% under setting [4].
As for `CCCCCOC(=O)Nc1nc(OCc2ccccc2)ncc1F` [Compound 982], the pest or weed control at 25 ppm lay within 76 to 100% under setting [5], 76 to 100% under setting [6] and 76 to 100% under setting [7]. For the same molecule, the pest or weed control at 100 ppm under setting [8] is 76 to 100%.
Turning to `CCc1ccc(COc2ncc(F)c(N)n2)cc1` [Compound 171], the pest or weed control at 25 ppm was 76 to 100% under setting [9] and 76 to 100% under setting [11]. For the same molecule, the pest or weed control at 100 ppm lay in the range of 76 to 100% under setting [10] and 76 to 100% under setting [12].
In the case of `CN(C)CCOc1ncc(F)c(N)n1` [Compound 545], the pest or weed control at 25 ppm by setting is: under setting [13], 0 to 25%; under setting [15], 0 to 25%. Also, the pest or weed control at 100 ppm by setting is: under setting [14], 26 to 50%; under setting [16], 51 to 75%.
Consider `Fc1ccc(COc2ncc(F)c(NC3CC3)n2)cc1F` [Compound 938], for which the pest or weed control at 200 ppm (24 h, one day protectant) lay within 76 to 100%.
Turning to `CN(C)/C=N/c1nc(OCc2cccc(N)c2)ncc1F` [Compound 303], the pest or weed control at 25 ppm by setting is: under setting [13], 26 to 50%; under setting [15], 51 to 75%. The pest or weed control at 100 ppm under setting [14] was in the range of 76 to 100% and the pest or weed control at 100 ppm under setting [16] lay in the range of 76 to 100%.
Regarding `Fc1cnc(OCc2cccs2)nc1/N=C/N1CCOCC1` [Compound 369], the pest or weed control at 25 ppm lay within 76 to 100% under setting [13] and 76 to 100% under setting [15]. Further, the pest or weed control at 100 ppm under setting [14] was 76 to 100% and the pest or weed control at 100 ppm under setting [16] was in the range of 76 to 100%.
Consider `Cc1ccc(C(C)C)cc1C(C)Oc1ncc(F)c(N)n1` (stereo not shown) [Compound 617], for which the pest or weed control at 25 ppm fell in the range of 76 to 100% under setting [1] and 76 to 100% under setting [3]. Also, the pest or weed control at 100 ppm reads like this: under setting [2], 76 to 100%; under setting [4], 76 to 100%.
Under “24 h, one day protectant”, `Fc1cnc(OCc2c(Cl)cccc2Cl)nc1NCc1cccs1` [Compound 835] showed a pest or weed control at 200 ppm of 76 to 100%.
On to `Cc1ccc(COc2ncc(F)c(/N=N/c3cc(C)ccc3C)n2)cc1` [Compound 1089], for which the pest or weed control at 25 ppm under setting [5] is 0 to 25%, the pest or weed control at 25 ppm under setting [6] lay within 0 to 25% and the pest or weed control at 25 ppm under setting [7] lay within 26 to 50%. Besides, under setting [8], the pest or weed control at 100 ppm is 26 to 50%.
Regarding `O=[N+]([O-])c1ccccc1NNc1nc(OCc2ccc(Cl)c(Cl)c2)ncc1F` [Compound 283], the pest or weed control at 25 ppm under setting [13] lay within 51 to 75% and the pest or weed control at 25 ppm under setting [15] lay within 0 to 25%. Also, the pest or weed control at 100 ppm runs as follows: under setting [14], 76 to 100%; under setting [16], 26 to 50%.
The corresponding values for `N#Cc1cccc(COc2ncc(F)c(NC(=O)NCc3ccccc3)n2)c1` [Compound 183] are 0 to 25%, 0 to 25%, 0 to 25% and 0 to 25%.
For the molecule `CC(C)c1ccc(C(C)Oc2ncc(F)c(N)n2)cc1` (stereo not shown) [Compound 387], the pest or weed control at 25 ppm is, setting by setting: under setting [13], 76 to 100%; under setting [15], 76 to 100%. The pest or weed control at 100 ppm is, setting by setting: under setting [14], 76 to 100%; under setting [16], 76 to 100%.
For `COc1ncc(F)c(NNc2c(Cl)cccc2Cl)n1` [Compound 1055], the pest or weed control at 25 ppm under setting [5] fell in the range of 0 to 25%, the pest or weed control at 25 ppm under setting [6] is 0 to 25% and the pest or weed control at 25 ppm under setting [7] lay in the range of 0 to 25%. Also, the pest or weed control at 100 ppm under setting [8] lay within 0 to 25%.
Regarding `COc1cccc(COc2ncc(F)c(NOC(C)C)n2)c1` [Compound 463], the pest or weed control at 25 ppm was in the range of 0 to 25% under setting [13] and 26 to 50% under setting [15]. The pest or weed control at 100 ppm under setting [14] was 51 to 75% and the pest or weed control at 100 ppm under setting [16] lay in the range of 51 to 75%.
As for `CC(Oc1ncc(F)c(N)n1)c1ccc(-c2ccc(Br)cc2)cc1` (stereo not shown) [Compound 175], the pest or weed control at 25 ppm lay within 76 to 100% under setting [9] and 0 to 25% under setting [11]. In addition, the pest or weed control at 100 ppm was in the range of 76 to 100% under setting [10] and 0 to 25% under setting [12].
